Results from US20140220132A1, “Pharmaceutical Formulation Comprising Compounds of the Jasmonate Family” (priority 2011, published 2014).

Experiment: GC/MS analysis of incorporation of methyl jasmonate into nano carriers (inclusion complexes)
Format: physicochemical
Details: determined by GC
Protocol: The following analysis were performed with GC/MS (gas chromatography/mass spectrometry), showing possible breakages of the elements that are included in the jasmonate family and also inclusion of such elements in several nano carriers such as dendrimers and CDs for comparison of analytical behavior. Used dendrimers was PAMAM (poly amide amine). Cyclodextrin was used as β-cyclodextrin.
Preparation of inclusion complexes was performed according to Rajewski R A, Stella V J pharmaceutical applications of cyclodextrins. 2. In delivering the in vivo drug. J. Pharm Sci 1996; 85 (11):1142-69. Inclusion compounds, or nano/micro carriers with jasmonates, can be prepared through mixing a different concentration from zero from one or more jasmonate compounds with up to a molar proportion equivalent to the host molecule. The preparation process also includes mixing the compound resulting from metabolism of the element of the jasmonate family in a water solution or other solution with acceptable pharmaceutical salts. The resulting solution is agitated until total dissolution of components in solvent. The mixing time is of some hours until the mixture reaches thermodynamic balance. […]

- percentage regarding incorporation of methyl jasmonate within PAMAM dendrimers (carrier PAMAM (poly amide amine) dendrimers): around 95%
- percentage regarding incorporation of methyl jasmonate within β-CD (carrier β-cyclodextrin): 98-99%
SMILES: CC/C=C\CC1C(=O)CCC1CC(=O)OC (centres unmarked) [methyl jasmonate]
